Assay results: patent publication EP1344776A1, “5- 2-hydroxy-3-[1-(3-trifluoromethylphenyl)-cyclopropyl]-propionylamino -phtalide and 6- 2-hydroxy-3-[1-(3-trifluoromethylphenyl)-cyclopropyl]-propionylamino -4-methyl-2,3-benzoxazin-1-one derivatives with progesterone receptor modulating activity for use in fertility control, hormone replacement …” (Schering Aktiengesellschaft, priority 2002, dated 2003)

Tests used:
[1] = tested on: Pregnant rats (Wistar Han, SPF); assay: Pregnancy maintenance test in rat; format: in vivo
Excerpt: In rats, castration induces termination of pregnancy. Progestins (combined with estrogens) are capable of maintaining pregnancy in castrated animals. However, the degree of pregnancy maintenance in castrated rats is optimal only in a defined dose range. Therefore, higher as well as lower doses generally induce a weaker effect. Accompanying treatment with defined doses of estrone (E1) increases the pregnancy maintaining effect of progestins.
Pregnant rats (Wistar Han, SPF) of 190 to 220 g (5 to 8 animals per dose) are ovariectomized on day 8 of pregnancy, 2 hours after the first substance administration. From day 8 to day 14, rats are daily treated with test progestin in combination with a standard dose of E1. One day later, animals are killed with carbon dioxide. For each animal, the number of living and dead fetuses is determined according to the heartbeat of the embryos. In case of empty uteri, the number of implantation sites is determined by means of staining with a 10 % ammonium sulfide solution.
S.c. (subcutaneous) application: The test progestin is dissolved in benzyl benzoate/castor oil (1+4 v/v), and the daily dose is administered in a volume of 1 ml/kg body weight.
P.o. (peroral) application: The test progestin is suspended in a carrier liquid (85 mg Myrj^R in 100 ml 0.9 % w/v NaCl solution), and the daily dose is administered in a volume of 2 ml/kg body weight.
I.p. (intraperitoneal) application: The test progestin is dissolved in propylene glycol and charged in miniature osmotic pumps (type 2001, 1.0 µl/h, 7 days), which are placed in the abdominal cavity of the rat.
The standard dose of estrone is 0.005 mg/kg body weight s.c. and is dissolved in benzyl benzoate/castor oil ([…]).
It is determined the pregnancy maintenance per animal [%], the pregnancy maintenance per dose (median of single values) and the ED50 (dose, at which pregnancy is maintained in 50 % of the animals; 100 % corresponds to control animals that are not ovariectomized).

androgen receptor (AR) = target: T1, androgen receptor (AR) (Homo sapiens, UniProt P10275); assay: Androgen receptor binding
T1 sequence (P10275 1-920): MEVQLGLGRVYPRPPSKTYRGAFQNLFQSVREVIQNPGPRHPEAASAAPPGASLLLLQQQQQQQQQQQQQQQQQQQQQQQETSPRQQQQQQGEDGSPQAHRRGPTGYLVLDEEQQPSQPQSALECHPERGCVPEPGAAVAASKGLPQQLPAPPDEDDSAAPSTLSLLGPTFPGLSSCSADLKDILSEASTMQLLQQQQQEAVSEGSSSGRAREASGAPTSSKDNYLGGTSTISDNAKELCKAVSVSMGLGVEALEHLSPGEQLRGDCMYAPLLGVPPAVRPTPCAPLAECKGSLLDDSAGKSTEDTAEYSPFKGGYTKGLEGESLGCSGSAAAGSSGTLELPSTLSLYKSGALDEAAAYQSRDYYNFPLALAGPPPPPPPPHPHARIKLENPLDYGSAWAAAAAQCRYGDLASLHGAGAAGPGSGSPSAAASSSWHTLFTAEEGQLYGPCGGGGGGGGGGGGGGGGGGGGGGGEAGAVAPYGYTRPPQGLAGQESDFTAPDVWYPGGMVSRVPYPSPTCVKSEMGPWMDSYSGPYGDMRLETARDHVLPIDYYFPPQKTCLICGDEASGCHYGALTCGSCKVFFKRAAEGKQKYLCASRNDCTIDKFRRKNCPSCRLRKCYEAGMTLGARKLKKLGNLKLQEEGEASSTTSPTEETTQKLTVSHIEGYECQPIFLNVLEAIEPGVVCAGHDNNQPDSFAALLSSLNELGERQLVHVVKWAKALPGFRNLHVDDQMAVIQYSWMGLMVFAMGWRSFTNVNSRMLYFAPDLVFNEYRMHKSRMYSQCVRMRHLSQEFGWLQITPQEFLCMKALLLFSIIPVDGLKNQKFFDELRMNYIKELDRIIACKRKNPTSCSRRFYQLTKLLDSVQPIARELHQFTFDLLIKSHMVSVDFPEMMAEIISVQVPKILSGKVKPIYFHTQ

[2] = target: T2, mineralocorticoid receptor (MR) (Homo sapiens, UniProt P08235); assay: Mineralocorticoid receptor binding; conditions: in vitro
T2 sequence (P08235 1-984): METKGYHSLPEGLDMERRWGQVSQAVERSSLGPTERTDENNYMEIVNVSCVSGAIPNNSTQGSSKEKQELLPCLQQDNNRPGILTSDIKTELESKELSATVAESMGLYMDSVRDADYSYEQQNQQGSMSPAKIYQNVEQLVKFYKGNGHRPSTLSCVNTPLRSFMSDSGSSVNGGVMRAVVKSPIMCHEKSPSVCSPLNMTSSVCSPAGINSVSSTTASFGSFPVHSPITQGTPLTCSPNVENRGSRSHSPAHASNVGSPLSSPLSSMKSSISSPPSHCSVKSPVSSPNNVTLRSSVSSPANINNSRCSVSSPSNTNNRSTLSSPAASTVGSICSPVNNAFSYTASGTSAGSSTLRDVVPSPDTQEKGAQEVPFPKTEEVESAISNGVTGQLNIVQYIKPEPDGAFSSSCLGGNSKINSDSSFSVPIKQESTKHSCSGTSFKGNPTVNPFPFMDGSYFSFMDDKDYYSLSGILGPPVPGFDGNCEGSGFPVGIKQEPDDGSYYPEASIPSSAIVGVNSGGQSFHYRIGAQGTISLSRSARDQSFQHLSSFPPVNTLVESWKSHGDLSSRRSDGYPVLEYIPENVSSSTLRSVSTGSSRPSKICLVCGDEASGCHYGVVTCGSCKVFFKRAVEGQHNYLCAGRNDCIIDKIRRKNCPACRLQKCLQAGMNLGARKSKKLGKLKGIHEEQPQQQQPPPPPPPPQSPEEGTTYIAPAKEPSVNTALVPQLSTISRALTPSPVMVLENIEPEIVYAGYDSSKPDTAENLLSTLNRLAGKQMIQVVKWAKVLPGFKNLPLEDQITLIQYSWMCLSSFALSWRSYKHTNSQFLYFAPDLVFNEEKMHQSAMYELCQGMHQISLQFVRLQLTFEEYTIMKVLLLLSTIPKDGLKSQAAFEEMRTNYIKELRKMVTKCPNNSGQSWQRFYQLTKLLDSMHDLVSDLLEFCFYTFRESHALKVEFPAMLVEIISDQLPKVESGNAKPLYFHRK

orchidectomized rats = assay: Androgenic / anti-androgenic activity in orchidectomized rats (prostate weight, seminal vesicle); format: in vivo, rat; conditions: prostate weight and seminal vesicle
Excerpt: The absence of androgenic as well as anti-androgenic activity in vivo was confirmed by tests performed with orchidectomized rats (change in prostate weight and in the seminal vesicle).

binding affinity for the androgen receptor (AR) (androgen receptor (AR)): moderate | affinity for the mineralocorticoid receptor (MR) [2]: negligible
Compound: O=C1OCc2cc(NC(=O)C(O)(CC3(c4cc(C(F)(F)F)ccc4F)CC3)C(F)(F)F)ccc21 (single isomer, unassigned; (+)) [((+)-1), (+)-5-{2-hydroxy-3-[1-(2-fluoro-5-trifluoromethylphenyl)-cyclopropyl]-2-trifluoromethyl-propionylamino}-phthalide]
Maintenance of pregnancy (rat) [ED50] ([1]; ovariectomized pregnant rats, with estrone): 0.012 mg/kg | potency compared to levonorgestrel (LNG), pregnancy maintenance test ([1]; rat, times more potent than LNG): about 10 | androgenic activity in pregnancy maintenance test ([1]; rats, dose 100 times higher than the dose required for maintaining pregnancy): no androgenic activity | androgenic activity in vivo (orchidectomized rats): no androgenic | anti-androgenic activity in vivo (orchidectomized rats): no anti-androgenic activity
